Results: US11109593B2, “Isoxazolin-5-one derivative and herbicide containing same as active ingredient” (HOKKO CHEMICAL INDUSTRY CO., LTD., priority 2017, dated 2021)

Key:
Type in all cases: in vivo
Scirpus juncoides [1] = test: Test Example 2: herbicidal effect test by treatment during growing period in paddy rice cultivation (seven days after seeding); conditions: for Herbicidal rate (%) Scirpus juncoides: 120 g/10a active ingredient, assessed 14 days after treatment, dry weight vs untreated area
Experimental: (§1) This test was conducted in a double system per one agent solution concentration area, and the herbicidal rates (%) were determined by the following equation (Math. 1) on 14 days after the treatment with the agents. Herbicidal Rate (%)={1-(Average Dry Weight (g) of Plant of Treated Area)/(Average Dry Weight (g) of Plant of Untreated Area)}×100 [Math. 1]
(§2) Herbicidal Effect Test by Treatment During Growing Period in Paddy Rice Cultivation
(§3) Wagner pots with an area of 1/10000 ares were filled with a paddy soil, and after adding water, a compound fertilizer (N:P:K=17:17:17) was mixed, followed by soil puddling. Then, Echinochloa crus-galli, broad leaf weeds (Lindernia pyxidaria and Monochoria vaginalis) and Scirpus juncoides, 30 seeds each, were sown in a depth of 0 to 1 cm. Water was poured immediately after seeding, and the water depth was kept at about 3 cm. The subsequent management was conducted in a glass greenhouse. Emulsions prepared using the compounds in Table 4 below according to Formulation Example 5 were diluted with water seven days after seeding, and a certain amount of the water-diluted agent solutions were dropped. The converted amount of the applied active ingredient corresponded to 120 g per 10 ares. The test was conducted in a double system per one agent solution concentration area, and the herbicidal rates (%) were determined by the equation (Math. 1) on 14 days after the treatment with the agents. […] The compound numbers in Table 4 are the same as those in Table 1 and Table 2 above.

Echinochloa crus-galli [2] = test: as above; conditions: for Herbicidal rate (%) Echinochloa crus-galli: 120 g/10a active ingredient, assessed 14 days after treatment, dry weight vs untreated area
Experimental: as §1, §2, §3

[3] = system: broad leaf weeds (Lindernia pyxidaria and Monochoria vaginalis); test: as above; conditions: for Herbicidal rate (%) Lindernia pyxidaria / Herbicidal rate (%) Monochoria vaginalis: 120 g/10a active ingredient, assessed 14 days after treatment, dry weight vs untreated area
Experimental: as §1, §2, §3

Scirpus juncoides [4] = test: Test Example 1: herbicidal effect test by treatment of rice paddy soil (immediately after seeding)
Experimental: (§4) Herbicidal Effect Test by Treatment of Rice Paddy Soil
(§5) Wagner pots with an area of 1/10000 ares were filled with a paddy soil, and after adding water, a compound fertilizer (N:P:K=17:17:17) was added, followed by soil puddling. Then, Echinochloa crus-galli, broad leaf weeds (Lindernia pyxidaria and Monochoria vaginalis) and Scirpus juncoides, 30 seeds each, were sown in a depth of 0 to 1 cm. Water was poured immediately after seeding, and the water depth was kept at about 3 cm. The subsequent management was conducted in a glass greenhouse. Immediately after that, emulsions prepared using the compounds in Table 3 below according to Formulation Example 5 were diluted with water, and a certain amount of the water-diluted agent solutions were dropped. The converted amount of the applied active ingredient corresponded to 120 g per 10 ares.
as §1
(§6) The compound numbers in Table 3 are the same as those in Table 1 and Table 2 above.

Echinochloa crus-galli [5] = test: as above
Experimental: as §4, §5, §1, §6

[6] = system: broad leaf weeds (Lindernia pyxidaria and Monochoria vaginalis); test: as above
Experimental: as §4, §5, §1, §6

[7] = 120 g/10a active ingredient, dry weight vs untreated area, 14 days after treatment
[8] = Lindernia pyxidaria, 120 g/10a active ingredient, dry weight vs untreated area, 14 days after treatment
[9] = Monochoria vaginalis, 120 g/10a active ingredient, dry weight vs untreated area, 14 days after treatment
[10] = 120 g/10a, rated 14 days after treatment, paddy soil pots
[11] = 120 g/10a active ingredient, 14 days after treatment, dry weight vs untreated area

Compound | Herbicidal rate (%) Scirpus juncoides (Scirpus juncoides [1]) | Herbicidal rate (%) Echinochloa crus-galli (Echinochloa crus-galli [2]) | Herbicidal rate (%) Lindernia pyxidaria ([3]; Lindernia pyxidaria) | Herbicidal rate (%) Monochoria vaginalis ([3]; Monochoria vaginalis) | Herbicidal rate (%) Scirpus juncoides (Scirpus juncoides [4]; [7]) | Herbicidal rate (%) Echinochloa crus-galli (Echinochloa crus-galli [5]; [7]) | Herbicidal rate (%) Lindernia pyxidaria [6, 8] | Herbicidal rate (%) Monochoria vaginalis [6, 9] | herbicidal rate, Scirpus juncoides (Scirpus juncoides [1]; [10]) | herbicidal rate, Echinochloa crus-galli (Echinochloa crus-galli [2]; [10]) | herbicidal rate, Lindernia pyxidaria ([3]; Lindernia pyxidaria, 120 g/10a, rated 14 days after treatment, paddy soil pots) | herbicidal rate, Monochoria vaginalis ([3]; Monochoria vaginalis, 120 g/10a, rated 14 days after treatment, paddy soil pots) | Herbicidal rate (%) Scirpus juncoides (Scirpus juncoides [4]; [11]) | Herbicidal rate (%) Echinochloa crus-galli (Echinochloa crus-galli [5]; [11]) | Herbicidal rate (%) Lindernia pyxidaria ([6]; Lindernia pyxidaria, 120 g/10a active ingredient, 14 days after treatment, dry weight vs untreated area) | Herbicidal rate (%) Monochoria vaginalis ([6]; Monochoria vaginalis, 120 g/10a active ingredient, 14 days after treatment, dry weight vs untreated area)
Cc1c(Cc2ccccc2N(S(=O)(=O)C(F)(F)F)S(=O)(=O)C(F)(F)F)c(=O)on1Cc1ccc(OC(F)(F)F)cc1 [Compound 1-1023] | 40% | 40% | 40% | 40% | 50% | 50% | 40% | 50% | – | – | – | – | – | – | – | –
Cc1c(Cc2ccccc2NS(=O)(=O)C(F)(F)F)c(=O)on1CCOCc1ccccc1 [Compound 1-238] | 80% | 80% | 40% | 80% | 80% | 100% | 80% | 80% | – | – | – | – | – | – | – | –
Cn1oc(=O)c(Cc2ccccc2NS(=O)(=O)C(F)(F)F)c1C(F)(F)F [Compound 1-78] | 80% | 40% | 40% | 60% | 70% | 40% | 50% | 50% | – | – | – | – | – | – | – | –
Cc1c(Cc2ccccc2N(S(=O)(=O)C(F)(F)F)S(=O)(=O)C(F)(F)F)c(=O)on1Cc1ccsc1 [Compound 1-1055] | – | – | – | – | – | – | – | – | 80% | 80% | 40% | 60% | 90% | 60% | 100% | 100%
Cc1c(Cc2ccccc2NS(=O)(=O)C(F)(F)F)c(=O)on1C(C)c1ccc(F)cc1 (centres unmarked) [Compound 1-204] | 80% | 80% | 80% | 80% | 90% | 100% | 90% | 90% | – | – | – | – | – | – | – | –
Cc1c(Cc2ccccc2N(S(=O)(=O)C(F)(F)F)S(=O)(=O)C(F)(F)F)c(=O)on1C(C)c1cccc(Cl)c1 (centres unmarked) [Compound 1-1033] | 80% | 70% | 80% | 80% | 90% | 90% | 100% | 100% | – | – | – | – | – | – | – | –
Cc1c(Cc2ccccc2NS(=O)(=O)C(F)(F)F)c(=O)on1Cc1ccc(F)c(Cl)c1 [Compound 1-202] | 40% | 40% | 60% | 60% | 80% | 100% | 100% | 90% | – | – | – | – | – | – | – | –
Cc1c(Cc2ccccc2N(S(=O)(=O)C(F)(F)F)S(=O)(=O)C(F)(F)F)c(=O)on1Cc1cccc(C(F)(F)F)c1 [Compound 1-1020] | 40% | 60% | 40% | 40% | 40% | 50% | 80% | 40% | – | – | – | – | – | – | – | –
Cc1c(Cc2ccccc2N(S(=O)(=O)C(F)(F)F)S(=O)(=O)C(F)(F)F)c(=O)on1Cc1ccc(Br)cc1 [Compound 1-1016] | 60% | 40% | 70% | 80% | 80% | 90% | 90% | 60% | – | – | – | – | – | – | – | –
Cc1ccc(Cn2oc(=O)c(Cc3ccccc3N(S(=O)(=O)C(F)(F)F)S(=O)(=O)C(F)(F)F)c2C)cc1 [Compound 1-1018] | 80% | 40% | 80% | 80% | 90% | 90% | 100% | 90% | – | – | – | – | – | – | – | –
CCCCCCCCn1oc(=O)c(Cc2ccccc2N(S(=O)(=O)C(F)(F)F)S(=O)(=O)C(F)(F)F)c1C [Compound 1-981] | 40% | 90% | 50% | 40% | 70% | 80% | 60% | 50% | – | – | – | – | – | – | – | –
CC(C)n1oc(=O)c(Cc2ccccc2N(S(=O)(=O)C(F)(F)F)S(=O)(=O)C(F)(F)F)c1C1CC1 [Compound 1-84] | 70% | 40% | 40% | 40% | 80% | 80% | 70% | 70% | – | – | – | – | – | – | – | –
Cc1c(Cc2ccccc2N(S(=O)(=O)C(F)(F)F)S(=O)(=O)C(F)(F)F)c(=O)on1Cc1ccc(F)c(F)c1 [Compound 1-1027] | 40% | 40% | 40% | 40% | 80% | 90% | 100% | 100% | – | – | – | – | – | – | – | –
Cc1c(Cc2ccccc2NS(=O)(=O)C(F)(F)F)c(=O)on1Cc1ccc(Br)cc1 [Compound 1-187] | 70% | 40% | 70% | 80% | 80% | 90% | 90% | 90% | – | – | – | – | – | – | – | –
CSCCCn1oc(=O)c(Cc2ccccc2NS(=O)(=O)C(F)(F)F)c1C [Compound 1-167] | 90% | 90% | 90% | 90% | 90% | 100% | 90% | 80% | – | – | – | – | – | – | – | –
Cc1c(Cc2ccccc2NS(=O)(=O)C(F)(F)F)c(=O)on1Cc1ccc(C(F)(F)F)cc1 [Compound 1-194] | 60% | 40% | 60% | 60% | 80% | 80% | 100% | 80% | – | – | – | – | – | – | – | –
